Reference: patent publication US8471005B2 (Cephalon, Inc., priority 2008, dated 2013)
Like-named read-outs stand apart in the source and are kept apart here.

How the values were obtained:
JAK2 = molecular target: T1, JAK2 (Homo sapiens, UniProt O60674); experiment: Recombinant Human JAK2 Kinase Assay (TRF); format: biochemical; settings: read-out: JAK2 Potency
T1 construct: host or cells: baculovirus expression system
Summary of the method: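 Baculovirus-expressed JAK2 (15 ng/ml) phosphorylated a biotinylated 15-mer peptide captured on Neutravidin, in 20 mM HEPES pH 7.2, 0.2 μM ATP, 1 mM MnCl2, 0.1% BSA, 2.5% DMSO final, 20 min at room temperature. Phosphoproduct detected by time-resolved fluorescence with Eu-N1-labelled PY100 antibody.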

ALK = molecular target: T2, ALK (Homo sapiens, UniProt Q9UM73); experiment: ALK Kinase Assay (ELISA/TRF, PLC-γ substrate); format: biochemical; settings: read-out: ALK Potency
T2 construct: host or cells: baculovirus expression system
T2 sequence (Q9UM73 19-1620): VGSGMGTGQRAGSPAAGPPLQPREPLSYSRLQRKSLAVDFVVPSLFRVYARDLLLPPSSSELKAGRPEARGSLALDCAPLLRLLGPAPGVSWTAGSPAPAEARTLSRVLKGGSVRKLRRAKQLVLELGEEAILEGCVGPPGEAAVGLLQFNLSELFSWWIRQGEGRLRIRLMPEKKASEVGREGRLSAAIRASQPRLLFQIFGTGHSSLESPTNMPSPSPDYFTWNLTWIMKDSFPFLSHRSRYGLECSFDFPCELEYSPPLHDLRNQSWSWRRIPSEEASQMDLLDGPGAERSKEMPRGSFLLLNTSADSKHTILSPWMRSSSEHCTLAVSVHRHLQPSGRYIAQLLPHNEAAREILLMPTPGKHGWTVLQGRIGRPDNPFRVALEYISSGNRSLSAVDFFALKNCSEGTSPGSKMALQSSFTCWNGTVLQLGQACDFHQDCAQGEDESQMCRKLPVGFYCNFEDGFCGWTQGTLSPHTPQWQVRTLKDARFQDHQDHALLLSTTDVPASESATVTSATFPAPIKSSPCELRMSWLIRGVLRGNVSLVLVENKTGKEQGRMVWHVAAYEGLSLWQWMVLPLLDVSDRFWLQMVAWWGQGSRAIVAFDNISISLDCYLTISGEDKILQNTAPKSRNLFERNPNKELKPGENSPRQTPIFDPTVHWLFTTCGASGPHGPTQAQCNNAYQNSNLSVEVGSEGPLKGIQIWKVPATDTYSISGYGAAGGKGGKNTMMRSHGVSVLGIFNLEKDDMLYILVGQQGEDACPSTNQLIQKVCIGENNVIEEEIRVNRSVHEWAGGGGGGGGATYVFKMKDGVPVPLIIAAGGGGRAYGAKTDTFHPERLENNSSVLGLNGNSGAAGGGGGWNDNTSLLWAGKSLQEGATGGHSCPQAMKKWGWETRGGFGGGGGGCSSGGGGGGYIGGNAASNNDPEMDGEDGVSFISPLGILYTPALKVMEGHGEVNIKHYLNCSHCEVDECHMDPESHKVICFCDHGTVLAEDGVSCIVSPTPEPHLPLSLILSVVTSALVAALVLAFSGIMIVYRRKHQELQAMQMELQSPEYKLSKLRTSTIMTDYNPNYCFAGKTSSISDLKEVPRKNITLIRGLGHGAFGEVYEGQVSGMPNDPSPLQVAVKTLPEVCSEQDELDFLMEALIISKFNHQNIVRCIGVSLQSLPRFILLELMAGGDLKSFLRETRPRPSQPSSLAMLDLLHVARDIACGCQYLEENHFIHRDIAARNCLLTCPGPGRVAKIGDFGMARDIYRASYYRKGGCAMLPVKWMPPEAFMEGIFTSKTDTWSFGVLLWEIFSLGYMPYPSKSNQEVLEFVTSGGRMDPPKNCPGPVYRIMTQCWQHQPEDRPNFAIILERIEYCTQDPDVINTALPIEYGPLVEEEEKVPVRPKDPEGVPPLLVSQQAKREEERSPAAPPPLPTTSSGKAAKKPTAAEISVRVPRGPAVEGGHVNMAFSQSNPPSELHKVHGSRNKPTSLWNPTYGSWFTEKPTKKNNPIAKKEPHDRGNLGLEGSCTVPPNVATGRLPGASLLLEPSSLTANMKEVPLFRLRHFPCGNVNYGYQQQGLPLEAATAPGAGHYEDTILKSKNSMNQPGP
Summary of the method: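 Time-resolved fluorescence ELISA using Eu-N1 PT66 antibody to detect phosphorylated PLC-γ (coated at 10 μg/mL). Enzyme at 30 ng/ml ALK; 15 min incubation, 37° C.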

[1] = JAK2 kinase inhibition, 0.2 μM ATP
[2] = ALK kinase inhibition, 1 μM ATP

T1 sequence (O60674 whole entry): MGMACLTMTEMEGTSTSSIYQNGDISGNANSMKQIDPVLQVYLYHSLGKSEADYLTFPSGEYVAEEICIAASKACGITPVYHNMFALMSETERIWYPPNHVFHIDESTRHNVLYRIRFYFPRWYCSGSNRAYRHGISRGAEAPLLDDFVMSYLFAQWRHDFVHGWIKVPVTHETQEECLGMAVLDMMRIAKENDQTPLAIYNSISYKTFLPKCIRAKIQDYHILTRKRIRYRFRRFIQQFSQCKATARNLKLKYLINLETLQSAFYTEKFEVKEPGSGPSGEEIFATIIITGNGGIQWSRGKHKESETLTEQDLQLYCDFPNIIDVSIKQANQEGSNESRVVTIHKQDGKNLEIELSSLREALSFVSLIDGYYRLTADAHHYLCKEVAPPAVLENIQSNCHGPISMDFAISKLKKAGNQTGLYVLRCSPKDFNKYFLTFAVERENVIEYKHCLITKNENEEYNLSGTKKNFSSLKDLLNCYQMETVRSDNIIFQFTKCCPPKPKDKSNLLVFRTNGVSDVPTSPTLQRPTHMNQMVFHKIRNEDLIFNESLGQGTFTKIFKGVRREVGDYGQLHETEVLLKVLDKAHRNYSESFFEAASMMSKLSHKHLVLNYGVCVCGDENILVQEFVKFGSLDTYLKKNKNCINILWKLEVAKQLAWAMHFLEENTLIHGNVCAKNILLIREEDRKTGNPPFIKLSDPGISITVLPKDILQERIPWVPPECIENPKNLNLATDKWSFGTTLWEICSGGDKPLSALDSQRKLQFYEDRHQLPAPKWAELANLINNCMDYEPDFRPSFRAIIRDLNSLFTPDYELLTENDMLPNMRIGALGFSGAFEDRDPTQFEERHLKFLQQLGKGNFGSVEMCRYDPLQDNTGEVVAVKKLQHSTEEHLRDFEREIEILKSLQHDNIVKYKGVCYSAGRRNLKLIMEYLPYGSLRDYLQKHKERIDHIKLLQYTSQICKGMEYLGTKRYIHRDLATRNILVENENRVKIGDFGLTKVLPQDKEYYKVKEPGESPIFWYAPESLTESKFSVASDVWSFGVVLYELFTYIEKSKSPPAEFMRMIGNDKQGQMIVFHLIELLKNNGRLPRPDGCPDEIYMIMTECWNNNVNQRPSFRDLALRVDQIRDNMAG

Row | Compound | IC50 (JAK2; [1]) | IC50 (ALK; [2]) | IC50 (JAK2; JAK2 Kinase Inhibition) | IC50 (ALK; ALK Kinase Inhibition)
1 | CN1CCC(c2ccc(Nc3ncc4ccc(-c5cccc(S(=O)(=O)N6CCCCC6)c5)n4n3)cc2)CC1 [Example 905, [4-(1-Methyl-piperidin-4-yl)-phenyl]-{7-[3-(piperidine-1-sulfonyl)-phenyl]-pyrrolo[2,1-f][1,2,4]triazin-2-yl}-amine] | < 100 nM | 100 to 1000 nM | – | –
2 | CC(=O)N1CCc2ccc(Nc3ncc4ccc(-c5cnn(C)c5)n4n3)cc21 [Example 966, 1-{6-[7-(1-Methyl-1H-pyrazol-4-yl)-pyrrolo[2,1-f][1,2,4]triazin-2-ylamino]-2,3-dihydro-indol-1-yl}-ethanone] | < 100 nM | 1000 to 10000 nM | – | –
3 | CNC(=O)c1cccc(Nc2ncc3ccc(-c4cccc(S(=O)(=O)NC(C)(C)C)c4)n3n2)c1 [Example 1384, 3-[7-(3-tert-Butylsulfamoyl-phenyl)-pyrrolo[2,1-f][1,2,4]triazin-2-ylamino]-N-methyl-benzamide] | – | – | < 100 nM | 1000 to 10000 nM
4 | CN1CCN(C(=O)N2CCC(c3ccc(Nc4ncc5ccc(-c6ccccc6N(C)S(C)(=O)=O)n5n4)cc3)CC2)CC1 [Example 503, N-Methyl-N-[2-(2-{4-[1-(4-methyl-piperazine-1-carbonyl)-piperidin-4-yl]-phenylamino}-pyrrolo[2,1-f][1,2,4]triazin-7-yl)-phenyl]-methanesulfonamide] | < 100 nM | < 100 nM | – | –
5 | COc1ccccc1-c1ccc2cnc(Nc3cccc(N4CCN(CC(C)(C)O)CC4)c3)nn12 [Example 218, 1-(4-{3-[7-(2-Methoxy-phenyl)-pyrrolo[2,1-f][1,2,4]triazin-2-ylamino]-phenyl}-piperazin-1-yl)-2-methyl-propan-2-ol] | – | – | < 100 nM | < 100 nM
6 | 1-[7-(2-Methoxy-phenyl)-pyrrolo[2,1-f][1,2,4]triazin-2-yl]-1H-imidazo[4,5-c]pyridine [Example 322] | – | – | 100 to 1000 nM | 1000 to 10000 nM
7 | CN(c1ccccc1-c1ccc2cnc(Nc3ccc(C4CN(CC(N)=O)C4)cc3)nn12)S(C)(=O)=O [Example 586, 2-[3-(4-{7-[2-(Methanesulfonyl-methyl-amino)-phenyl]-pyrrolo[2,1-f][1,2,4]triazin-2-ylamino}-phenyl)-azetidin-1-yl]-acetamide] | < 100 nM | < 100 nM | – | –

The next lines start with the values.

Row | IC50 (JAK2; [1]) | IC50 (ALK; [2]) | IC50 (JAK2; JAK2 Kinase Inhibition) | IC50 (ALK; ALK Kinase Inhibition) | Compound
8 | – | – | < 100 nM | 1000 to 10000 nM | COc1ccccc1-c1ccc2cnc(Nc3ccc4ncccc4c3)nn12 [Example 172, [7-(2-Methoxy-phenyl)-pyrrolo[2,1-f][1,2,4]triazin-2-yl]-quinolin-6-yl-amine]
9 | – | – | < 100 nM | > 10000 nM | Clc1cccc(-c2ccc3cnc(Nc4ccc(N5CCOCC5)cc4)nn23)c1 [Example 1, [7-(3-Chloro-phenyl)-pyrrolo[2,1-f][1,2,4]triazin-2-yl]-(4-morpholin-4-yl-phenyl)-amine]
10 | – | – | < 100 nM | 100 to 1000 nM | CN1CCN(CC2CCN(c3ccc(Nc4ncc5ccc(-c6ccc(S(C)(=O)=O)cc6)n5n4)cc3)CC2)CC1 [Example 452, [7-(4-Methanesulfonyl-phenyl)-pyrrolo[2,1-f][1,2,4]triazin-2-yl]-{4-[4-(4-methyl-piperazin-1-ylmethyl)-piperidin-1-yl]-phenyl}-amine]
11 | – | – | < 100 nM | > 10000 nM | CN1CCN(c2ccc(Nc3ncc4c(-c5ccccc5)ccn4n3)cc2)CC1 [Example 41, [4-(4-Methyl-piperazin-1-yl)-phenyl]-(5-phenyl-pyrrolo[2,1-f][1,2,4]triazin-2-yl)-amine]
12 | < 100 nM | 1000 to 10000 nM | – | – | c1ccc2ncc(-c3ccc4cnc(Nc5ccc(N6CCOCC6)cc5)nn34)cc2c1 [Example 1033, (4-Morpholin-4-yl-phenyl)-(7-quinolin-3-yl-pyrrolo[2,1-f][1,2,4]triazin-2-yl)-amine]
13 | – | – | < 100 nM | < 100 nM | CN(c1ccccc1-c1ccc2cnc(Nc3ccc(N4CCC(N5CCOCC5)CC4)cc3)nn12)S(C)(=O)=O [Example 1456, N-Methyl-N-(2-{2-[4-(4-morpholin-4-yl-piperidin-1-yl)-phenylamino]-pyrrolo[2,1-f][1,2,4]triazin-7-yl}-phenyl)-methanesulfonamide]
